In US11214803B2, “Modulators of YAP1 expression” (Ionis Pharmaceuticals, Inc., priority 2019, dated 2022):
Strand notation (5' to 3'): a small letter for the sugar, then the base; units joined by * are phosphorothioate-linked, units joined directly phosphodiester-linked; [ ] holds rarer units or linkages, { } end groups; capitals alone tell only the bases. k = constrained ethyl (cEt); [5mC] = 5-methylcytosine; d = 2'-deoxy (DNA)

Test system: Yap1 mRNA
Assay: Antisense inhibition of human Yap1 in A-431 cells by cEt gapmers, single dose (Example 2, RTS4814)
Assay type: cell-based
Method: Modified oligonucleotides were designed to target a Yap1 nucleic acid and were tested for their effect on Yap1 mRNA level in vitro. The modified oligonucleotides were tested in a series of experiments that had similar culture conditions. Cultured A-431 cells at a density of 5,000 cells per well were treated using free uptake with 2,000 nM of modified oligonucleotide. After a treatment period of approximately 48 hours, RNA was isolated from the cells and Yap1 mRNA levels were measured by quantitative real-time RTPCR. Human primer probe set RTS4814 was used to measure mRNA levels. Yap1 mRNA levels were normalized to total RNA content, as measured by RIBOGREEN®. Results are presented in the tables below as percent control of the amount of Yap1 mRNA relative to untreated control cells (% UTC). The modified oligonucleotides with percent control values marked with an asterisk (*) target the amplicon region of the primer probe set. Additional assays may be used to measure the potency and efficacy of the modified oligonucleotides targeting the amplicon region.
The newly designed modified oligonucleotides in the Tables below were designed as 3-10-3 cEt gapmers. The gapmers are 16 nucleosides in length, wherein the central gap segment comprises of ten 2′-deoxynucleosides and is flanked by wing segments on the 5′ direction and the 3′ direction comprising three nucleosides each. Each nucleoside in the 5′ wing segment and each nucleoside in the 3′ wing segment has a cEt sugar modification. The internucleoside linkages throughout each gapmer are phosphorothioate (P═S) linkages. All cytosine residues throughout each gapmer are 5-methylcytosines.
“Start site” indicates the 5′-most nucleoside to which the gapmer is targeted in the human gene sequence. “Stop site” indicates the 3′-most nucleoside to which the gapmer is targeted human gene sequence. […] Activity ofthe modified oligonucleotide may be defined in a different experiment.

[1] = Table 21, Yap1 mRNA, percent of untreated control, 3-10-3 cEt gapmers targeting SEQ ID NO.: 1 and 2
[2] = Table 18, A-431 cells, 5,000 cells per well, free uptake, 2,000 nM modified oligonucleotide, approx. 48 hours, RTS4814, normalized to RIBOGREEN, Yap1 mRNA as percent of untreated control
[3] = Table 6, A-431 cells, 5,000 cells per well, free uptake, 2,000 nM modified oligonucleotide, approx. 48 hours, RTS4814, normalized to RIBOGREEN, Yap1 mRNA relative to untreated control cells
[4] = Table 22, Yap1 mRNA as percent of untreated control, 3-10-3 cEt gapmers, single dose
[5] = Yap1 mRNA as percent of untreated control, A-431 cells, 3-10-3 cEt gapmers targeting SEQ ID NO.: 1, and 2, Table 30
[6] = Table 25, Yap1 mRNA as percent of untreated control, 3-10-3 cEt gapmers targeting SEQ ID NO.: 1, and 2
[7] = A-431 cells, 5,000 cells per well, free uptake, 2,000 nM modified oligonucleotide, approx. 48 hours, RTS4814, normalized to RIBOGREEN, Table 4, asterisk (*) = targets amplicon region of primer probe set
[8] = Yap1 mRNA as percent of untreated control, A-431 cells, 3-10-3 cEt gapmers targeting SEQ ID NO.: 1, and 2, Table 31
[9] = Table 23, Yap1 mRNA as percent of untreated control, 3-10-3 cEt gapmers, single dose
[10] = Table 33, Yap1 mRNA, percent of untreated control, 3-10-3 cEt gapmers targeting SEQ ID NO.: 1, and 2
[11] = Table 24, Yap1 mRNA as percent of untreated control, 3-10-3 cEt gapmers targeting SEQ ID NO.: 1, and 2

1076103 (kG*k[5mC]*kT*dT*dA*dA*d[5mC]*dA*dA*dA*dT*d[5mC]*dA*kG*k[5mC]*k[5mC]; antisense) [Compound 1076103]
YAP1 (% UTC) [1]: 79 % UTC

1075300 (k[5mC]*kG*kT*dG*dA*dA*dA*dA*dG*dA*dA*dA*dG*kG*k[5mC]*k[5mC]; antisense) [Compound 1075300]
YAP1 (% UTC) [2]: 98 % UTC

716456 (kA*k[5mC]*k[5mC]*dA*d[5mC]*dA*d[5mC]*dT*dA*dT*dT*dA*dT*kA*kA*kA; antisense) [Compound 716456]
YAP1 (% UTC) [3]: 96 % UTC

1074920 (antisense kA*k[5mC]*kT*d[5mC]*dA*dA*dG*dT*dT*dA*d[5mC]*dA*dT*k[5mC]*k[5mC]*k[5mC]) [Compound 1074920]
YAP1 (% UTC) [4]: 68 % UTC

1076080 (k[5mC]*kA*kT*dT*dA*dG*d[5mC]*dA*dG*dT*dT*d[5mC]*dA*k[5mC]*kT*kA; antisense) [compound 1076080]
YAP1 (% UTC) [5]: 55 % UTC

1075115 (antisense kG*kT*kA*dT*dA*dG*d[5mC]*d[5mC]*dT*dT*dA*dT*dT*k[5mC]*kT*kT) [Compound 1075115]
YAP1 (% UTC) [6]: 6 % UTC

1076007 (k[5mC]*kA*kT*dT*dA*dG*dG*d[5mC]*d[5mC]*dT*dT*dT*dT*kA*k[5mC]*kT; antisense) [Compound 1076007]
YAP1 (% UTC) [1]: 27 % UTC

716457 (kA*kA*kA*dG*dG*dA*dT*dA*d[5mC]*dA*dT*dT*d[5mC]*k[5mC]*kA*k[5mC]; antisense) [Compound 716457]
YAP1 (% UTC) [7]: 61 % UTC

1075051 (antisense kA*kA*kT*dA*dA*dA*d[5mC]*dA*dA*d[5mC]*d[5mC]*d[5mC]*dA*kA*k[5mC]*kG) [Compound 1075051]
YAP1 (% UTC) [6]: 56 % UTC

1075569 (kG*kT*kA*dG*dA*dA*dA*dG*dG*d[5mC]*dA*dT*dT*kA*kG*kA; antisense) [compound 1075569]
YAP1 (% UTC) [8]: 45 % UTC

1076551 (antisense kG*kT*kG*dG*dA*dA*dT*dA*dG*d[5mC]*dA*dG*d[5mC]*k[5mC]*kA*kT) [Compound 1076551]
YAP1 (% UTC) [1]: 67 % UTC

1075600 (antisense k[5mC]*kA*k[5mC]*dT*dA*dT*dA*dA*dT*d[5mC]*dT*dG*dA*k[5mC]*k[5mC]*k[5mC]) [compound 1075600]
YAP1 (% UTC) [5]: 68 % UTC

716406 (kA*k[5mC]*kT*d[5mC]*dT*d[5mC]*dA*dT*d[5mC]*dT*d[5mC]*dG*dA*kG*kA*kG; antisense) [Compound 716406]
YAP1 (% UTC) [7]: 117 % UTC

1075915 (kA*kA*kT*dT*dT*dA*dG*dG*dA*dT*dG*d[5mC]*d[5mC]*kT*kT*kT; antisense) [Compound 1075915]
YAP1 (% UTC) [6]: 16 % UTC

1075719 (k[5mC]*kT*kA*dA*dA*dA*d[5mC]*d[5mC]*dG*dG*d[5mC]*dT*dG*kG*kA*k[5mC]; antisense) [Compound 1075719]
YAP1 (% UTC) [1]: 76 % UTC

1074312 (antisense kA*kT*kA*dT*dT*d[5mC]*d[5mC]*dG*d[5mC]*dA*dT*dT*dG*k[5mC]*k[5mC]*kT) [Compound 1074312]
YAP1 (% UTC) [4]: 18 % UTC

1075561 (kG*kT*kA*dA*dG*dT*dA*dA*dG*dG*dG*dA*dA*k[5mC]*k[5mC]*k[5mC]; antisense) [Compound 1075561]
YAP1 (% UTC) [9]: 32 % UTC

1075908 (kA*kA*kT*dA*dA*dG*dG*dA*dG*dT*dA*dG*dG*kT*kG*kG; antisense) [Compound 1075908]
YAP1 (% UTC) [2]: 50 % UTC

1074377 (antisense kA*kA*kA*d[5mC]*dG*dG*dT*dT*d[5mC]*dT*dG*d[5mC]*dT*kG*kT*kG) [Compound 1074377]
YAP1 (% UTC) [9]: 52 % UTC

1075667 (antisense k[5mC]*kA*kA*dA*dT*dT*dT*dA*dG*dT*dT*dG*dT*kG*k[5mC]*kA) [compound 1075667]
YAP1 (% UTC) [10]: 109 % UTC

1076170 (kA*kG*kT*dA*dA*dA*dG*dA*dG*dT*dA*d[5mC]*dT*kG*kT*kA; antisense) [Compound 1076170]
YAP1 (% UTC) [11]: 16 % UTC

1074148 (antisense kG*kT*kG*dG*dA*dG*dA*dA*dG*d[5mC]*dG*dG*d[5mC]*kG*kA*k[5mC]) [Compound 1074148]
YAP1 (% UTC) [2]: 66 % UTC

1074247 (antisense kA*kT*k[5mC]*dG*dA*dT*dG*dT*dG*dA*dT*dT*dT*kA*kA*kG) [Compound 1074247]
YAP1 (% UTC) [1]: 43 % UTC

716433 (kA*kG*k[5mC]*dA*dT*d[5mC]*dT*dG*dA*d[5mC]*dT*dT*d[5mC]*kT*kA*kA; antisense) [Compound 716433]
YAP1 (% UTC) [7]: 20 % UTC

1075281 (antisense k[5mC]*kA*kG*d[5mC]*dA*dA*dA*dA*dG*dT*dA*d[5mC]*d[5mC]*kA*kT*kG) [compound 1075281]
YAP1 (% UTC) [8]: 36 % UTC

716361 (kG*kG*kT*dT*dG*dA*dG*dG*d[5mC]*dG*dG*d[5mC]*dG*kG*k[5mC]*kT; antisense) [Compound 716361]
YAP1 (% UTC) [7]: 75 % UTC

1076425 (k[5mC]*kG*kG*dG*dA*dA*dA*dA*dT*dT*d[5mC]*dT*dG*kG*kA*kG; antisense) [Compound 1076425]
YAP1 (% UTC) [9]: 32 % UTC

716443 (kT*kT*kA*dT*dG*dT*dG*dA*d[5mC]*dT*dA*dA*dT*kG*kA*kT; antisense) [Compound 716443]
YAP1 (% UTC) (Table 5, A-431 cells, 5,000 cells per well, free uptake, 2,000 nM modified oligonucleotide, approx. 48 hours, RTS4814, normalized to RIBOGREEN, Yap1 mRNA relative to untreated control cells): 73 % UTC

1074858 (antisense kA*kA*k[5mC]*dA*dT*dT*dG*dG*dT*dA*d[5mC]*dT*dA*kT*kA*kT) [Compound 1074858]
YAP1 (% UTC) [11]: 23 % UTC

1074534 (antisense kT*kA*kA*dT*dA*dG*d[5mC]*dT*d[5mC]*dT*dT*dT*d[5mC]*kT*kA*kG) [Compound 1074534]
YAP1 (% UTC) (Table 20, Yap1 mRNA, percent of untreated control, 3-10-3 cEt gapmers targeting SEQ ID NO.: 1 and 2): 88 % UTC

716504 (kA*kT*kA*dA*dA*dA*dG*d[5mC]*d[5mC]*dT*dT*dA*dG*kA*kG*kT; antisense) [Compound 716504]
YAP1 (% UTC) [3]: 112 % UTC

1075685 (k[5mC]*kA*kT*dA*dA*dT*d[5mC]*dA*dA*dA*dG*dG*dG*kT*kG*k[5mC]; antisense) [Compound 1075685]
YAP1 (% UTC) (Table 19, A-431 cells, 5,000 cells per well, free uptake, 2,000 nM modified oligonucleotide, approx. 48 hours, RTS4814, normalized to RIBOGREEN, Yap1 mRNA as percent of untreated control): 60 % UTC

716462 (kT*kT*kA*dA*dA*d[5mC]*dT*dA*d[5mC]*d[5mC]*dA*dG*dT*kG*kA*kA; antisense) [Compound 716462]
YAP1 (% UTC) [3]: 86 % UTC

1075146 (antisense kG*kT*kA*dT*dT*dA*dA*dG*dG*dG*dA*dT*dT*kT*kT*k[5mC]) [Compound 1075146]
YAP1 (% UTC) [11]: 8 % UTC

1076203 (kG*kT*kT*dA*dA*dT*dA*d[5mC]*dA*dT*dG*dG*d[5mC]*k[5mC]*kA*kA; antisense) [Compound 1076203]
YAP1 (% UTC) [6]: 29 % UTC

1075602 (antisense kT*kA*kT*dT*dA*dT*dA*dA*dG*dT*d[5mC]*dT*dA*k[5mC]*kA*kA) [compound 1075602]
YAP1 (% UTC) (Table 32, Yap1 mRNA, percent of untreated control, 3-10-3 cEt gapmers targeting SEQ ID NO.: 1, and 2): 114 % UTC

1074995 (antisense kA*kA*kA*dA*d[5mC]*dT*dA*dA*dA*dT*dG*dG*dA*k[5mC]*k[5mC]*kG) [compound 1074995]
YAP1 (% UTC) [10]: 50 % UTC

1075626 (k[5mC]*kA*kT*dT*dA*dG*d[5mC]*d[5mC]*dA*dA*dA*dG*d[5mC]*kT*k[5mC]*kA; antisense) [Compound 1075626]
YAP1 (% UTC) [11]: 34 % UTC
